System: Japanese white rabbits
Assay: Ophthalmic disorder caused by 8-time-a-day instillation to white rabbits: macroscopic observation of anterior segment of the eye
Type: in vivo, rabbit
Set-up: scale not given here
Settings: mean of three eyes
Description: The test drugs, Compound A and Compound C, were each dissolved in the following base at a concentration of 0.125, 0.25, 0.5 and 1.0% and adjusted to pH 7 for use in this experiment. [table] Japanese white rabbits (body weight about 2 kg) purchased from Japan Laboratory Animals, INC. were used. These animals were bred in a breeding chamber set to temperature 23±3° C., humidity 55±10% and fed on limited amount of 100 g a day of a solid feed (Labo R Stock, Nihon-Nosan Kogyo K.K.). They were allowed free access to tap water. Instillation: Using a micropipet, each test drug (100 μl) was instilled into the right eye of each animal 8 times at one hour intervals. Into the left eye was instilled a base in the same manner. Observation: anterior segment of the eye was macroscopically observed before instillation and 30 min after 2nd, 4th, 6th and 8th administrations, according to the macroscopic criteria for ocular lesions as shown in Table 1 (Naruyuki Fukui, […] no Rinshou 4, 277-289, 1970). In addition, corneal staining spot was observed before instillation and after 8th administration. [table]

[1] = 0.125%, 30 min after 2nd instillation
[2] = 0.125%, 30 min after 4th instillation
[3] = 0.125%, 30 min after 6th instillation
[4] = 0.125%, 30 min after 8th instillation
[5] = 0.25%, 30 min after 2nd instillation
[6] = 0.25%, 30 min after 4th instillation
[7] = 0.25%, 30 min after 6th instillation
[8] = 0.25%, 30 min after 8th instillation
[9] = 0.5%, 30 min after 2nd instillation
[10] = 0.5%, 30 min after 4th instillation
[11] = 0.5%, 30 min after 6th instillation
[12] = 0.5%, 30 min after 8th instillation
[13] = 1.0%, 30 min after 2nd instillation
[14] = 1.0%, 30 min after 4th instillation
[15] = 1.0%, 30 min after 6th instillation
[16] = 1.0%, 30 min after 8th instillation

C[C@@H](N)c1ccc(C(=O)Nc2ccncc2)cc1.Cl.Cl [Compound C, (R)-(+)-N-(4-pyridyl)-4-(1-aminoethyl)benzamide 2HCl]
2.83: Score of ocular lesions: Total score [7] | Score of ocular lesions: Conjunctiva Palpebral edema [12]
1.99: Score of ocular lesions: Total score [10]
1.67: Score of ocular lesions: Conjunctiva Nictitating membrane [16]
1.66: Score of ocular lesions: Total score [4]
0.50: Score of ocular lesions: Conjunctiva Bulbar redness [2] | Score of ocular lesions: Conjunctiva Discharge [3] | Score of ocular lesions: Conjunctiva Bulbar redness [4] | Score of ocular lesions: Conjunctiva Nictitating membrane [4] | Score of ocular lesions: Conjunctiva Nictitating membrane [6] | Score of ocular lesions: Conjunctiva Bulbar redness [7] | Score of ocular lesions: Conjunctiva Bulbar redness [9] | Score of ocular lesions: Conjunctiva Nictitating membrane [9] | Score of ocular lesions: Conjunctiva Bulbar redness [10] | Score of ocular lesions: Conjunctiva Bulbar redness [13] | Score of ocular lesions: Conjunctiva Nictitating membrane [13] | Score of ocular lesions: Conjunctiva Bulbar redness [14] | Score of ocular lesions: Conjunctiva Nictitating membrane [14] | Score of ocular lesions: Conjunctiva Palpebral redness [14] | Score of ocular lesions: Conjunctiva Palpebral edema [15] | Score of ocular lesions: Conjunctiva Palpebral redness [15]
3.33: Score of ocular lesions: Conjunctiva Palpebral edema [16]
0.84: Score of ocular lesions: Total score [3]
1.33: Score of ocular lesions: Conjunctiva Nictitating membrane [8]
0: Score of ocular lesions: Conjunctiva Bulbar redness [1] | Score of ocular lesions: Conjunctiva Discharge [1] | Score of ocular lesions: Conjunctiva Nictitating membrane [1] | Score of ocular lesions: Conjunctiva Palpebral edema [1] | Score of ocular lesions: Conjunctiva Palpebral redness [1] | Score of ocular lesions: Cornea Area [1] | Score of ocular lesions: Cornea Degree [1] | Score of ocular lesions: Iris Values [1] | Score of ocular lesions: Total score [1] | Score of ocular lesions: Conjunctiva Palpebral edema [2] | Score of ocular lesions: Conjunctiva Palpebral redness [2] | Score of ocular lesions: Cornea Area [2] | Score of ocular lesions: Cornea Degree [2] | Score of ocular lesions: Iris Values [2] | Score of ocular lesions: Cornea Area [3] | Score of ocular lesions: Cornea Degree [3] | Score of ocular lesions: Iris Values [3] | Score of ocular lesions: Conjunctiva Discharge [4] | Score of ocular lesions: Cornea Area [4] | Score of ocular lesions: Cornea Degree [4] | Score of ocular lesions: Iris Values [4] | Score of ocular lesions: Conjunctiva Bulbar redness (0.125%, Before instillation) | Score of ocular lesions: Conjunctiva Discharge (0.125%, Before instillation) | Score of ocular lesions: Conjunctiva Nictitating membrane (0.125%, Before instillation) | Score of ocular lesions: Conjunctiva Palpebral edema (0.125%, Before instillation) | Score of ocular lesions: Conjunctiva Palpebral redness (0.125%, Before instillation) | Score of ocular lesions: Cornea Area (0.125%, Before instillation) | Score of ocular lesions: Cornea Degree (0.125%, Before instillation) | Score of ocular lesions: Iris Values (0.125%, Before instillation) | Score of ocular lesions: Total score (0.125%, Before instillation) | Score of ocular lesions: Conjunctiva Discharge [5] | Score of ocular lesions: Conjunctiva Palpebral edema [5] | Score of ocular lesions: Conjunctiva Palpebral redness [5] | Score of ocular lesions: Cornea Area [5] | Score of ocular lesions: Cornea Degree [5] | Score of ocular lesions: Iris Values [5] | Score of ocular lesions: Conjunctiva Discharge [6] | Score of ocular lesions: Conjunctiva Palpebral edema [6] | Score of ocular lesions: Cornea Area [6] | Score of ocular lesions: Cornea Degree [6] | Score of ocular lesions: Iris Values [6] | Score of ocular lesions: Cornea Area [7] | Score of ocular lesions: Cornea Degree [7] | Score of ocular lesions: Iris Values [7] | Score of ocular lesions: Conjunctiva Palpebral edema [8] | Score of ocular lesions: Conjunctiva Palpebral redness [8] | Score of ocular lesions: Cornea Area [8] | Score of ocular lesions: Cornea Degree [8] | Score of ocular lesions: Iris Values [8] | Score of ocular lesions: Conjunctiva Bulbar redness (0.25%, Before instillation) | Score of ocular lesions: Conjunctiva Discharge (0.25%, Before instillation) | Score of ocular lesions: Conjunctiva Nictitating membrane (0.25%, Before instillation) | Score of ocular lesions: Conjunctiva Palpebral edema (0.25%, Before instillation) | Score of ocular lesions: Conjunctiva Palpebral redness (0.25%, Before instillation) | Score of ocular lesions: Cornea Area (0.25%, Before instillation) | Score of ocular lesions: Cornea Degree (0.25%, Before instillation) | Score of ocular lesions: Iris Values (0.25%, Before instillation) | Score of ocular lesions: Total score (0.25%, Before instillation) | Score of ocular lesions: Conjunctiva Discharge [9] | Score of ocular lesions: Conjunctiva Palpebral edema [9] | Score of ocular lesions: Conjunctiva Palpebral redness [9] | Score of ocular lesions: Cornea Area [9] | Score of ocular lesions: Cornea Degree [9] | Score of ocular lesions: Iris Values [9] | Score of ocular lesions: Cornea Area [10] | Score of ocular lesions: Cornea Degree [10] | Score of ocular lesions: Cornea Area [11] | Score of ocular lesions: Cornea Degree [11] | Score of ocular lesions: Iris Values [11] | Score of ocular lesions: Cornea Area [12] | Score of ocular lesions: Cornea Degree [12] | Score of ocular lesions: Conjunctiva Bulbar redness (0.5%, Before instillation) | Score of ocular lesions: Conjunctiva Discharge (0.5%, Before instillation) | Score of ocular lesions: Conjunctiva Nictitating membrane (0.5%, Before instillation) | Score of ocular lesions: Conjunctiva Palpebral edema (0.5%, Before instillation) | Score of ocular lesions: Conjunctiva Palpebral redness (0.5%, Before instillation) | Score of ocular lesions: Cornea Area (0.5%, Before instillation) | Score of ocular lesions: Cornea Degree (0.5%, Before instillation) | Score of ocular lesions: Iris Values (0.5%, Before instillation) | Score of ocular lesions: Total score (0.5%, Before instillation) | Score of ocular lesions: Conjunctiva Discharge [13] | Score of ocular lesions: Conjunctiva Palpebral edema [13] | Score of ocular lesions: Cornea Area [13] | Score of ocular lesions: Cornea Degree [13] | Score of ocular lesions: Iris Values [13] | Score of ocular lesions: Conjunctiva Discharge [14] | Score of ocular lesions: Cornea Area [14] | Score of ocular lesions: Cornea Degree [14] | Score of ocular lesions: Cornea Area [15] | Score of ocular lesions: Cornea Degree [15] | Score of ocular lesions: Cornea Area [16] | Score of ocular lesions: Cornea Degree [16] | Score of ocular lesions: Conjunctiva Bulbar redness (1.0%, Before instillation) | Score of ocular lesions: Conjunctiva Discharge (1.0%, Before instillation) | Score of ocular lesions: Conjunctiva Nictitating membrane (1.0%, Before instillation) | Score of ocular lesions: Conjunctiva Palpebral edema (1.0%, Before instillation) | Score of ocular lesions: Conjunctiva Palpebral redness (1.0%, Before instillation) | Score of ocular lesions: Cornea Area (1.0%, Before instillation) | Score of ocular lesions: Cornea Degree (1.0%, Before instillation) | Score of ocular lesions: Iris Values (1.0%, Before instillation) | Score of ocular lesions: Total score (1.0%, Before instillation)
1.17: Score of ocular lesions: Total score [13]
2.00: Score of ocular lesions: Conjunctiva Discharge [12] | Score of ocular lesions: Conjunctiva Palpebral redness [12] | Score of ocular lesions: Conjunctiva Bulbar redness [16]
1.50: Score of ocular lesions: Total score [6]
2.34: Score of ocular lesions: Total score [14]
0.83: Score of ocular lesions: Total score [2] | Score of ocular lesions: Conjunctiva Nictitating membrane [15]
1.00: Score of ocular lesions: Conjunctiva Discharge [8] | Score of ocular lesions: Total score [9] | Score of ocular lesions: Conjunctiva Discharge [11] | Score of ocular lesions: Conjunctiva Nictitating membrane [11] | Score of ocular lesions: Conjunctiva Bulbar redness [12] | Score of ocular lesions: Conjunctiva Nictitating membrane [12] | Score of ocular lesions: Iris Values [15] | Score of ocular lesions: Iris Values [16]
0.17: Score of ocular lesions: Conjunctiva Discharge [2] | Score of ocular lesions: Conjunctiva Bulbar redness [3] | Score of ocular lesions: Conjunctiva Palpebral edema [3] | Score of ocular lesions: Conjunctiva Palpebral redness [3] | Score of ocular lesions: Conjunctiva Palpebral edema [7] | Score of ocular lesions: Conjunctiva Discharge [10] | Score of ocular lesions: Conjunctiva Palpebral redness [13] | Score of ocular lesions: Conjunctiva Palpebral edema [14]
0.66: Score of ocular lesions: Total score [5]
12.66: Score of ocular lesions: Total score [16]
9.50: Score of ocular lesions: Total score [12]
0.33: Score of ocular lesions: Conjunctiva Nictitating membrane [2] | Score of ocular lesions: Conjunctiva Nictitating membrane [3] | Score of ocular lesions: Conjunctiva Palpebral edema [4] | Score of ocular lesions: Conjunctiva Palpebral redness [4] | Score of ocular lesions: Conjunctiva Bulbar redness [5] | Score of ocular lesions: Conjunctiva Nictitating membrane [5] | Score of ocular lesions: Conjunctiva Bulbar redness [6] | Score of ocular lesions: Conjunctiva Palpebral redness [6] | Score of ocular lesions: Conjunctiva Nictitating membrane [7] | Score of ocular lesions: Conjunctiva Palpebral redness [7] | Score of ocular lesions: Conjunctiva Nictitating membrane [10] | Score of ocular lesions: Conjunctiva Palpebral edema [10] | Score of ocular lesions: Conjunctiva Palpebral redness [10] | Score of ocular lesions: Iris Values [10] | Score of ocular lesions: Conjunctiva Palpebral edema [11] | Score of ocular lesions: Conjunctiva Palpebral redness [11] | Score of ocular lesions: Conjunctiva Discharge [15]
2.33: Score of ocular lesions: Conjunctiva Discharge [16] | Score of ocular lesions: Conjunctiva Palpebral redness [16]
3.00: Score of ocular lesions: Total score [8]
0.67: Score of ocular lesions: Conjunctiva Discharge [7] | Score of ocular lesions: Conjunctiva Bulbar redness [8] | Score of ocular lesions: Conjunctiva Bulbar redness [11] | Score of ocular lesions: Iris Values [12] | Score of ocular lesions: Iris Values [14] | Score of ocular lesions: Conjunctiva Bulbar redness [15]
3.83: Score of ocular lesions: Total score [11] | Score of ocular lesions: Total score [15]
